For four compounds, carcinogen call results are on record in PubChem BioAssay AID1259411 (Chemical Carcinogenesis Research Information System (CCRIS), 2018).

Each structure is given as a SMILES string. Active and inactive are the calls of the source. No rule for the calls is given here.

For this series, the system named is rodent carcinogenicity bioassays, tumor incidence. In words: CCRIS carcinogenicity studies. In outline: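 NCI-built, expert-reviewed records of carcinogenicity and related test outcomes (mutagenicity, tumor promotion/inhibition) compiled from published and report sources, historical span 1985-2011, not updated.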

With `CC(C)(c1ccc(O)cc1)c1ccc(O)cc1`, the carcinogen call reads like this: (Species: MOUSE, Strain/Sex: B6C3F1/FEMALE, Route: ORAL, Dose: 0, 5000, 10000 PPM IN DIET FOR 103 WK (STUDY DURATION: 103 WK), Dose: 0, 5000, 10000 PPM IN DIET FOR 103 WK (STUDY DURATION: 103 WK)) “inactive; negative”; (Species: MOUSE, Strain/Sex: B6C3F1/MALE, Route: ORAL, Dose: 0, 1000, 5000 PPM IN DIET FOR 103 WK (STUDY DURATION: 103 WK), Dose: 0, 1000, 5000 PPM IN DIET FOR 103 WK (STUDY DURATION: 103 WK), Tumor Site: Type of Lesion: HEMATOPOIETIC SYSTEM: LYMPHOMA OR LEUKEMIA) “equivocal”; (Species: Mouse, Strain/Sex: CD-1/Female (24/group); Route: Subcutaneous; Dose: 0; 10; 100; 1000 ug/kg in corn oil, once a day from days 1-5 of life; study duration 18 mo); Dose: 0; 10; 100; 1000 ug/kg in corn oil, once a day from days 1-5 of life; study duration 18 mo), Tumor Site: Type of Lesion: Uterus, leiomyoma (0/18; 1/23; 2/20; 1/16 [multiple lesions]), Tumor Site: Type of Lesion: Uterus, leiomyoma (0/18; 1/23; 2/20; 1/16 [multiple lesions])) “inactive; negative (nonneoplastic and preneoplastic lesions observed in ovary/oviduct and”; (Species: RAT, Strain/Sex: F344/FEMALE, Route: ORAL, Dose: 0, 1000, 2000 PPM IN DIET FOR 103 WK (STUDY DURATION: 103 WK), Dose: 0, 1000, 2000 PPM IN DIET FOR 103 WK (STUDY DURATION: 103 WK), Tumor Site: Type of Lesion: HEMATOPOIETIC SYSTEM: LEUKEMIA) “equivocal”; (Species: RAT, Strain/Sex: F344/MALE, Route: ORAL, Dose: 0, 1000, 2000 PPM IN DIET FOR 103 WK (STUDY DURATION: 103 WK), Dose: 0, 1000, 2000 PPM IN DIET FOR 103 WK (STUDY DURATION: 103 WK), Tumor Site: Type of Lesion: HEMATOPOIETIC SYSTEM: LEUKEMIA) “equivocal”; (Species: Rat, Strain/Sex: Wistar-Furth/Female (?/group with maximum of 8 pups per dam), Route: Osmotic pump to dams, Dose: 0, 2.5, 25, 250, 1000 ug/kg bw/day from embryonic day 9 to postnatal day 1, study duration 50 or 95 postnatal days, Dose: 0, 2.5, 25, 250, 1000 ug/kg bw/day from embryonic day 9 to postnatal day 1, study duration 50 or 95 postnatal days, Tumor Site: Type of Lesion: Mammary gland, ductal hyperplasia) “active; positive (significant increase at all dose levels at pnd 50; significant at 2.5”.
`N#Cc1ccc(C/C(=N\NC(=O)Nc2ccc(OC(F)(F)F)cc2)c2cccc(C(F)(F)F)c2)cc1`: the carcinogen call runs as follows: (Species: Mouse, Strain/Sex: CD-1/Female (65/Group), Route: Oral, Dose: 0 (aqueous carboxymethylcellulose), 100, 250, 1000 mg/kg/day of 96.3% metaflumizone by gavage for 18 mo, study duration, Dose: 0 (aqueous carboxymethylcellulose), 100, 250, 1000 mg/kg/day of 96.3% metaflumizone by gavage for 18 mo, study duration) “inactive; negative”; (Species: Mouse, Strain/Sex: CD-1/Male (65/Group), Route: Oral, Dose: 0 (aqueous carboxymethylcellulose), 100, 250, 1000 mg/kg/day of 96.3% metaflumizone by gavage for 18 mo, study duration, Dose: 0 (aqueous carboxymethylcellulose), 100, 250, 1000 mg/kg/day of 96.3% metaflumizone by gavage for 18 mo, study duration) “inactive; negative”; (Species: Rat, Strain/Sex: Sprague-Dawley/Female (80/Group), Route: Oral, Dose: 0 (aqueous carboxymethylcellulose), 30, 60, 300 mg/kg/day (adjusted to 200 mg after 2 weeks of treatment) of 96.3% metaf, Dose: 0 (aqueous carboxymethylcellulose), 30, 60, 300 mg/kg/day (adjusted to 200 mg after 2 weeks of treatment) of 96.3% metaf) “inactive; negative”; (Species: Rat, Strain/Sex: Sprague-Dawley/Male (80/Group), Route: Oral, Dose: 0 (aqueous carboxymethylcellulose), 30, 60, 300 mg/kg/day of 96.3% metaflumizone by gavage for 24 mo, study duration 24, Dose: 0 (aqueous carboxymethylcellulose), 30, 60, 300 mg/kg/day of 96.3% metaflumizone by gavage for 24 mo, study duration 24) “inactive; negative”.
Turning to `Clc1cc2c(c(Cl)c1Cl)Oc1c(Cl)c(Cl)c(Cl)c(Cl)c1O2`, the carcinogen call (Species: RAT, Strain/Sex: SPRAGUE-DAWLEY/FEMALE (30), Route: ORAL, GAVAGE IN CORN OIL, Dose: 2.5 MG/KG BW PLUS 0.63 MG/KG 0N D 150, TOTAL DOSE 3.1 MG/KG (STUDY DURATION: LIFESPAN), Tumor Site: Type of Lesion: LIVER: CARCINOMA) was “active; positive”; the carcinogen call (Species: RAT, Strain/Sex: SPRAGUE-DAWLEY/FEMALE (30), Route: ORAL, GAVAGE IN CORN OIL, Dose: 2.5 MG/KG BW PLUS 0.63 MG/KG ON D 150, TOTAL DOSE 3.1 MG/KG (STUDY DURATION: LIFESPAN), Tumor Site: Type of Lesion: LUNG: CARCINOMA) is “active; positive”; the carcinogen call (Species: RAT, Strain/Sex: SPRAGUE-DAWLEY/FEMALE (30), Route: ORAL, GAVAGE IN CORN OIL, Dose: 2.8 MG/KG BW PLUS 0.086 MG/KG EVERY OTHER WK FOR LIFESPAN, TOTAL DOSE 4.6 MG/KG (STUDY DURATION: LIFESPAN), Tumor Site: Type of Lesion: LUNG: CARCINOMA) was “active; positive”; the carcinogen call (Species: RAT, Strain/Sex: SPRAGUE-DAWLEY/FEMALE, Route: ORAL, GAVAGE IN CORN OIL, Dose: 0, 1.0, 2.8, 3.1, 3.4, 3.8, 4.1 MG/KG BW ONCE (STUDY DURATION: LIFESPAN), Dose: 0, 1.0, 2.8, 3.1, 3.4, 3.8, 4.1 MG/KG BW ONCE (STUDY DURATION: LIFESPAN), Tumor Site: Type of Lesion: LIVER: CARCINOMA) is “active; positive at higher doses”; the carcinogen call (Species: RAT, Strain/Sex: SPRAGUE-DAWLEY/FEMALE, Route: ORAL, GAVAGE IN CORN OIL, Dose: 0, 1.0, 2.8, 3.1, 3.4, 3.8, 4.1 MG/KG BW ONCE (STUDY DURATION: LIFESPAN), Dose: 0, 1.0, 2.8, 3.1, 3.4, 3.8, 4.1 MG/KG BW ONCE (STUDY DURATION: LIFESPAN), Tumor Site: Type of Lesion: LUNG: CARCINOMA) was “active; positive”.
With `Clc1cc(Cl)c(-c2cc(Cl)c(Cl)cc2Cl)cc1Cl`, the carcinogen call reads like this: (Species: RAT, Strain/Sex: SPRAGUE-DAWLEY/FEMALE, Route: ORAL, Dose: 0, 10, 100, 300, 1000, 3000 NG/KG/D (STUDY DURATION: 2 YRS), Dose: 0, 10, 100, 300, 1000, 3000 NG/KG/D (STUDY DURATION: 2 YRS)) “inactive; negative”; (Species: Rat, Strain/Sex: Harlan Sprague-Dawley/Female, Route: Gavage, Dose: 0, 3000 ug/kg in corn oil:acetone (99:1) 5 d/wk for 30 wk then vehicle for remainder of 2 yr study, Tumor Site: Type of Lesion: Liver: Cholangioma (0/53, 2/50)) “equivocal”; (Species: Rat, Strain/Sex: Harlan Sprague-Dawley/Female, Route: Gavage, Dose: 0, 10, 100, 300, 1000, 3000 ug/kg in corn oil:acetone (99:1) 5 d/wk for 2 yr, Dose: 0, 10, 100, 300, 1000, 3000 ug/kg in corn oil:acetone (99:1) 5 d/wk for 2 yr; Tumor Site: Type of Lesion: Liver: Cholangioma 0/53, 0/54, 0/53, 0/53, 2/53, 0/51)) “equivocal”.
